Experimental data published in US7361743B2 (Pfizer Inc, priority 2004, dated 2008).
In brackets after ≈: the same amount, converted by molar mass. Read-outs that look alike come from different tables or passages of the source.

Columns and labels:
[1] = system: Staphylococcus aureus Smith; experiment: Efficacy in murine S. aureus septicemia; format: in vivo, ICR mice; settings: for Efficacy in the murine S. aureus septicemia model relative to clindamycin: IV route of administration, compound given 1 hour after inoculation; for ED50: Staphylococcus aureus, murine S. aureus Smith septicemia, dosed 1 hour after inoculation, mortality 7 days
Protocol: (§1) Efficacy studies were performed in an S. aureus murine septicemia model according to models published elsewhere (Goldstein, B. P., G. Candiani, T. M. Arain, G. Romano, I. Ciciliato, M. Berti, M. Abbondi, R. Scotti, M. Mainini, F. Ripamonti, and et al. 1995. Antimicrobial activity of MDL 63,246, a new semisynthetic glycopeptide antibiotic Antimicrob. Agents Chemother. 39:1580-1588; Misiek, M., T. A. Pursiano, F. Leitner, and K. E. Price 1973. Microbiological properties of a new cephalosporin, BL-S 339:7-(phenylacetimidoyl-aminoacetamido)-3-(2-methyl-1,3,4-thiadiazol-5-ylthio methyl)ceph-3-em-4-carboxylic acid Antimicrob. Agents Chemother. 3:40-48).
Compounds were dissolved in 2% Tween 80 for oral dosing or 0.9% NaCl solution for intravenous dosing. Compounds were administered at 1 hour after bacterial inoculation. Vancomycin or ampicillin were used as controls.
(§2) Male or female ICR mice weighing 22±2 g from MDS Pharma Services were used for the evaluation. Food and water was given ad libitum. Groups of 6 mice weighing […] were used for the experiment. Mice were inoculated intraperitoneally with Staphylococcus aureus Smith at 4 104 CFU in 0.5 ml of Brain Heart Infusion Broth (Difco) containing 5% mucin (Sigma). Mortality was recorded once daily for 7 days following bacterial inoculation.
as §1, with “39:1580-1588.;” for “39:1580-1588;”, “339: 7-(phenylacetimidoyl-aminoacetamido)-3-(2-methyl-1,3,4-thiadiazol-5-ylthio” for “339:7-(phenylacetimidoyl-aminoacetamido)-3-(2-methyl-1,3,4-thiadiazol-5-ylthio”
as §2, with “mL” for “ml”

[2] = system: E. coli transcription/translation (bacterial protein synthesis, E. coli S30 extract); experiment: In vitro inhibition of E. coli transcription and translation assay (TT), cell-free; format: biochemical; settings: for IC50: cell-free E. coli S30 extract; for In vitro inhibition of E. coli transcription and translation compared with literature azepine compound VIII(18): cell-free TT assay, comparison in words
Protocol: Inhibition of bacterial protein synthesis was assayed in a cell-free E. coli transcription/translation assay.
Stock solutions of compounds were prepared at 10 mg/mL in DMSO. The assay contained less or equal to 1% (v/v) final concentration of DMSO. Three-fold serial dilutions were prepared in assay buffer at 6-fold final concentration in 96 well microtiter plate.
All vials, tubes and microtiter plates are RNase free. The Mix was freshly prepared with 10 μl H2O, 10 μl AA-M, 10 μl AA-L, 80 μl Premix and 50 μl ES30 extract. The assay was performed in a 96-well plate. Five microliters of compounds at various concentrations (6-fold final assay concentration) were preincubated with 20 μl of the mix for 5 min at room temperature. The reaction started with addition of 5 μl of plasmid (˜0.1 mg/mL pGEMBGAL), and kept at 37° C. for 1 h followed by the addition of 150 μl of OPNG solution (4 mg/mL OPNG in 0.1M NaPi, pH 7.5, 1 mM MgCl2 and 2 mM DTT). 150 μl of the reaction was transferred to a ½-area plate and increase in absorption at OD420 nm was monitored for 10 min using a Spectramax plate reader (Molecular Devices). The slope of absorption change over time is corresponding to the pathway activity.
The E. coli S30 Extract for circular DNA kit was purchased from Promega. Original plasmid pGEMBGAL was obtained from Promega and amplified via Maxiprep in house. 2-Nitrophenyl β-D-galactopyranoside was obtained from Sigma. Clindamycin HCl (USP) was purchased from Spectrum.
The inhibition are expressed as percent of control activity (without inhibitor) which is calculated according to equation (1): Inhibition %=(compound slope-blank slope)/(control slope-blank slope)*100 (1)
All IC50s were determined by fitting the experimental data to equation (2) using software DeltaGraph (DeltaPoint Inc.): Y=Y0/(1+(X/IC50)[…])+c (2)
Where Y: activity at given inhibitor concentration; Y0: activity without inhibitor; X: inhibitor concentration; d: slope; c: constant.
Lincosamides inhibit bacterial growth through binding to the bacterial 50S ribosome, thus inhibiting peptide bond formation. The transcription/translation assay provides a screening tool to measure inhibition of bacterial protein synthesis pathway at the target level without the complication of differences in membrane permeability.

Staphylococcus aureus = experiment: Susceptibility testing, NCCLS microdilution MIC; format: cell-based; settings: ATCC25923, S. aureus ATCC 25923, Example A′, read-out: MIC S. aureus
Enterococcus faecalis = experiment: Susceptibility testing, NCCLS microdilution MIC; format: cell-based; settings: Enterococcus faecalis, ATCC29212; E. faecalis ATCC 29212; Example A′; read-out: MIC E. faecalis
Haemophilus influenzae = experiment: Susceptibility testing, NCCLS microdilution MIC; format: cell-based; settings: Haemophilus influenzae, ATCC31517; H. influenzae ATCC 31517; Example A′; read-out: MIC H. influenzae
Bacteroides fragilis = experiment: Susceptibility testing, NCCLS microdilution MIC (anaerobe); format: cell-based; settings: Bacteroides fragilis, ATCC25285; B. fragilis ATCC 25285; Example A′; read-out: MIC B. fragilis
[3] = intravenous administration, read-out: ED50, IV
[4] = oral administration, read-out: ED50, PO

| Structure (SMILES) | Efficacy in the murine S. aureus septicemia model relative to clindamycin ([1]; mice) | ED50 [1, 3] | ED50 [1, 4] | IC50 [2] | In vitro inhibition of E. coli transcription and translation compared with literature azepine compound VIII(18) [2] | MIC (Staphylococcus aureus) | MIC (Enterococcus faecalis) | MIC (Haemophilus influenzae) | MIC (Bacteroides fragilis) | Efficacy in the murine S. aureus septicemia model by oral route ([1]; oral route of administration, mice) |
| --- | --- | --- | --- | --- | --- | --- | --- | --- | --- | --- |
| CS[C@H]1O[C@H]([C@H](NC(=O)C2CC[C@H](CCCC#N)CCN2)[C@H](C)Cl)[C@H](O)[C@H](O)[C@H]1O (stereo in doubt) [Example 7′, 5-(3-Cyano-propyl)-azepane-2-carboxylic acid [2-chloro-1-(3,4,5-trihydroxy-6-methylsulfanyl-tetrahydro-pyran-2-yl)-propyl]-amide] | three to greater than five fold better | 0.29 mg/kg | > 30 mg/kg | 320 nM | markedly superior | 0.125 µg/mL (≈ 0.269 µM) | 0.25 µg/mL (≈ 0.539 µM) | 0.5 µg/mL (≈ 1.08 µM) | 4 µg/mL (≈ 8.62 µM) |  |
| CS[C@H]1O[C@H]([C@H](NC(=O)C2CC[C@H](CCCF)CCN2)C(C)C)[C@H](O)[C@H](O)[C@H]1O (stereo partly drawn) [Example 6′] | three to greater than five fold better | 0.28 mg/kg |  | 760 nM | markedly superior | 0.06 µg/mL (≈ 0.137 µM) | 0.25 µg/mL (≈ 0.573 µM) | 2 µg/mL (≈ 4.58 µM) | 1 µg/mL (≈ 2.29 µM) |  |
| COCCC[C@@H]1CCN[C@H](C(=O)N[C@@H]([C@H]2O[C@H](SC)[C@H](O)[C@@H](O)[C@H]2O)[C@H](C)Cl)CC1 [Example 13′, 5-(3-Methoxy-propyl)-azepane-2-carboxylic acid [2-chloro-1-(3,4,5-trihydroxy-6-methylsulfanyl-tetrahydro-pyran-2-yl)-propyl]-amide] | three to greater than five fold better | 0.28 mg/kg | 6.84 mg/kg | 830 nM | markedly superior | 0.06 µg/mL (≈ 0.128 µM) | 0.5 µg/mL (≈ 1.07 µM) | 1 µg/mL (≈ 2.13 µM) | 4 µg/mL (≈ 8.53 µM) | demonstrated the potential for use of the compounds as orally administered therapeutic agents |
